# Data from patent US4501750A, “Thiazole compounds, a process for preparing same and a pharmaceutical composition containing the thiazole compounds” (Mitsui Toatsu Kaguku Kabushiki Kaisha, priority 1981, dated 1985).
# Counter-ions that a name gives are not always drawn.
# Tested on: not listed separately
# Assay: Acute Toxicity Test through Oral Administration
# Type: in vivo
# Conditions: ddY male mice, 7 days observation
# Excerpt: To each of a group of five ddY male mice, was orally administered a medicine dissolved or suspended in physiological saline.
row,Compound,estimated LD50
1,"c1ccc([C@H]2CN3CCSC3=N2)cc1 [Levamisole.HCl, Levamisole hydrochloride, reference compound]",200 to 300 mg/kg

# Tested on: delayed hypersensitivity induced by picryl chloride
# Assay: Reinforcement Test of Delayed Hypersensitivity (picryl chloride, pinna thickness)
# Type: in vivo, ICR male mice
# Conditions: 50 mg per Kg orally, simultaneously with sensitization; 24 hours after challenging; average of both pinnae of eight mice; * P<0.05, ** P<0.01 vs control
# Excerpt: The delayed hypersensitivity induced on a mouse when picryl chloride(2-chloro-1,3,5-trinitrobenzene) is coated on the skin of the mouse is known as a typical cellular immunity.
# The above test system was used for the reinforcement tests of the delayed hypersensitivity.
# Groups of eight ICR male mice, each having a body weight of about 30 g, were used for the test.
# Sensitization was effected by coating a 3% solution of picryl chloride in a 4/1 mixture of olive oil and acetone on the shaved abdomen of each of the mice.
# Simultaneously with the sensitization, a solution or suspension of a compound of the present invention dissolved or suspended in a 0.2% solution of carboxymethylcellulose in a physiological saline was orally administered to the mouse at a dose of 50 mg per Kg of its body weight. To each mouse of a control group, a 0.2% carboxymethylcellulose solution was similarly administered in a physiological saline.
# The delayed hypersensitivity was induced 7 days after the sensitization by pinching each of the pinnae of each mouse with a pair of forceps whose tip portions were wrapped with a felt impregnated with a 1% solution of picryl chloride in olive oil and coating the pinnae with the solution. The thickness of each pinna was measured before the challenging and 24 hours after the challenging and the ratio of increase of the thickness (average value of both of the pinnae of the eight mice) is shown in Table 1.
# For comparison, a similar test was carried out using Levamisole hydrochloride.
# F.t tests were carried out on the thus-obtained test results.
row,Compound,Ratio of Increase of Pinna Thickness
1,"c1ccc([C@H]2CN3CCSC3=N2)cc1 [Levamisole.HCl, Levamisole hydrochloride, reference compound]",31.2%
2,O=C(Nc1nc(-c2ccccc2)cs1)C(=O)Nc1nc(-c2ccccc2)cs1 [drawing 6],30.3%
3,O=C(Nc1nc(-c2ccc(Cl)cc2)cs1)C(=O)Nc1nc(-c2ccc(Cl)cc2)cs1 [drawing 7],29.5%
4,COc1ccc(-c2csc(NC(=O)C(=O)Nc3nc(-c4ccc(OC)cc4)cs3)n2)cc1 [drawing 8],36.5%
5,CSc1sc(NC(=O)C(=O)Nc2nc(-c3ccccc3)c(SC)s2)nc1-c1ccccc1 [drawing 9],27.3%
6,CC(Cl)C(=O)Nc1nc(-c2ccccc2)cs1 (stereo not drawn) [drawing 10],36.1%
7,CC(Br)C(=O)Nc1nc(-c2ccccc2)cs1 (stereo not drawn) [drawing 11],32.9%

# Tested on: adjuvant arthritis
# Assay: Adjuvant Arthritis Test (Mycobacterium tuberculosis adjuvant)
# Type: in vivo, SD male rats
# Conditions: 5 mg per Kg subcutaneously, 9 times in total; left hind leg; * P<0.05, ** P<0.01 vs control
# Excerpt: The adjuvant arthritis in rats caused by the injection of a Mycobacterium tuberculosis adjuvant is often utilized for a model test of chronic rheumatoid arthritis in human.
# The mechanism of manifestation of this disease has not completely been elucidated, but it is known that the cellular immunity plays an important role. The immuno-modulating activity of the compounds of the present invention was investigated in accordance with this known adjuvant arthritis test.
# 8-Week-old SD male rats were used for the test. In 0.1 ml of fluid paraffin, 0.4 mg of dry-dead cells of Mycobacterium tuberculosis were suspended, and the suspension was injected under the heel skin of the right hind leg of each rat. Each of the compounds of the present invention was subcutaneously administered 9 times in total before and after the injection of the adjuvant. Each of the compounds of the present invention was dissolved or suspended in a 0.2% solution of carboxymethylcellulose in physiological saline and administered to each rat at a dose of 5 mg per Kg of the body weight. The swollen volume of the left hind leg was measured during the period of from the day of injection to the day of completion of the test, and the swelling ratio was calculated. For comparison, a similar test was conducted using Levamisole hydrochloride. F.t tests were carried out on the test results obtained.
row,Compound,Swell suppression ratio to control group (average value from 16th to 20th days)
1,"c1ccc([C@H]2CN3CCSC3=N2)cc1 [Levamisole.HCl, Levamisole hydrochloride, reference compound]",19.8%
2,O=C(Nc1nc(-c2ccccc2)cs1)C(=O)Nc1nc(-c2ccccc2)cs1 [drawing 12],51.0%
3,O=C(Nc1nc(-c2ccc(Cl)cc2)cs1)C(=O)Nc1nc(-c2ccc(Cl)cc2)cs1 [drawing 13],51.9%
4,COc1ccc(-c2csc(NC(=O)C(=O)Nc3nc(-c4ccc(OC)cc4)cs3)n2)cc1 [drawing 14],14.1%
5,CSc1sc(NC(=O)C(=O)Nc2nc(-c3ccccc3)c(SC)s2)nc1-c1ccccc1 [drawing 15],35.5%
6,CC(Cl)C(=O)Nc1nc(-c2ccccc2)cs1 (stereo not drawn) [drawing 16],12.1%
7,CC(Br)C(=O)Nc1nc(-c2ccccc2)cs1 (stereo not drawn) [drawing 17],20.0%
